Results: patent US8242134B2, “Isoquinolinone derivatives as NK3 antagonists” (H. Lundbeck A/S, priority 2008, dated 2012)

How the values were obtained:
human NK3 receptor = target: T1, human NK3 receptor (Homo sapiens, UniProt P29371); assay: NK3 receptor binding assay (SPA competition binding, 125I-NKB); conditions: read-out: Affinity (Ki/nM)
T1 construct: expressed in transfected cells
T1 sequence (P29371 1-465): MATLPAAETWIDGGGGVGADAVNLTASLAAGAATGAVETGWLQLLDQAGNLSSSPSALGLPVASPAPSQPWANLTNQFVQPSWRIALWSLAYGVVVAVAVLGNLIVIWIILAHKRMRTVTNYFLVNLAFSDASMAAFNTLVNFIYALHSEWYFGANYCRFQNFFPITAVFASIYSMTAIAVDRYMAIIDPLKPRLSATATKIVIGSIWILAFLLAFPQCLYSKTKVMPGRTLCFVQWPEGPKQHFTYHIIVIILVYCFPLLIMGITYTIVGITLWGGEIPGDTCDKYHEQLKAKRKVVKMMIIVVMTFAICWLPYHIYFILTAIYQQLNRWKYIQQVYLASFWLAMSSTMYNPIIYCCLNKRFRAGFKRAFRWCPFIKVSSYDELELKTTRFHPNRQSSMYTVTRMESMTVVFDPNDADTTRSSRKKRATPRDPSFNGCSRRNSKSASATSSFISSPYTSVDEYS
Description: Membrane preparation: BHK cells stably expressing the human NK3 receptor were seeded in harvesting plates in Dulbeccos MEM containing GlutaMax (862 mg/l), 1 mM sodium pyruvate, 10% fetal calf serum, 1% Pen/Strep, 1 mg/ml G418 and were grown at 34° C. in a humidified atmosphere containing 10% CO2. To increase receptor expression, 10 μM trichotatin A was added to the media 24 hours before harvest of the cells at a confluency of app 90%. Prior to the harvesting, the cells were washed twice with PBS without Mg^2+ og Ca^2+ and subsequently scrapped of in 10 ml PBS pr harvesting plate. The cells suspension were centrifuged at 1500×G in three minutes before resuspension in 15 mM Tris-HCl pH 7.5 buffer containing 2 mM MgCl2; 0.3 mM EDTA and 1 mM EGTA (buffer A). The cell suspension was homogenised and subsequently centrifuged at 40000×G in 30 minutes. The membrane-pellet was resuspended in buffer A containing 250 mM sucrose, aliquoted and stored at −80° C.
Affinity assay description: The assay was performed as a SPA-based competition-binding assay in a 50 mM Tris pH 7.4 assay buffer containing 120 mM NaCl, 3 mM MnCl2, 40 μg/ml bacitracin, 2 μg/ml Chymostatin, 1 μg/ml Phosphoramidon and 4 μg/ml Leupeptin. […] The assay plate was subsequently under agitation incubated for 90 min at RT.

[1] = cited from earlier work

SMILES	Ki (human NK3 receptor) [nM]	also measured
Cc1c(C(=O)N[C@H](c2cccc(F)c2)C2CCC2)c2cccc(F)c2c(=O)n1[C@H]1CCOC1 [Example 4r, 8-Fluoro-3-methyl-1-oxo-2-(S)-tetrahydro-furan-3-yl-1,2-dihydro-isoquinoline-4-carboxylic acid [(S)-cyclobutyl-(3-fluoro-phenyl)-methyl]-amide]	170	
Cc1c(C(=O)N[C@H](c2cccc(F)c2)C2CC2)c2cccc(F)c2c(=O)n1[C@@H]1CCNC1 [Example 5g, 8-Fluoro-3-methyl-1-oxo-2-(R)-1-pyrrolidin-3-yl-1,2-dihydro-isoquinoline-4-carboxylic acid [(S)-cyclopropyl-(3-fluoro-phenyl)-methyl]-amide]	180	
CC(=O)N(C)C1(c2ccccc2)CCN(CCC[C@]2(c3ccc(Cl)c(Cl)c3)CCCN(C(=O)c3ccccc3)C2)CC1 [Osanetant, osanetant]		effect in clinical trials versus placebo ([1]; in particular on positive symptoms of psychosis): superior to placebo
CC[C@H](NC(=O)c1c(O)c(-c2ccccc2)nc2ccccc12)c1ccccc1 [Talnetant, talnetant]		effect on cognitive behaviour of schizophrenics in clinical trials ([1]; in vivo): ameliorate the cognitive behaviour of schizophrenics
